# Reference: the supplement of paper PMC11061612
# Assays:
# Assay in all cases: combination Emax (second highest fraction inhibited in the dose matrix, 72 h); higher = more inhibition; extreme values may be limits of the assay
# AM-38 (Glioblastoma) = test system: AM-38 (Glioblastoma)
# Procedure, shortened: (§1)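 Bliss excess equals the observed combination effect minus the expected value EA + EB − EA·EB, where EA and EB are the effects of each agent alone. Combination Emax is the second-highest inhibition within the matrix. Inhibition was scaled from CellTiter-Glo 2.0 luminescence, with 0 set by vehicle wells and 1 by blank wells, after 72 hours of two-drug dosing of cells plated in 1536-well plates.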
# GAK (Melanoma) = test system: GAK (Melanoma)
# Procedure, shortened: as §1
# [1] = test system: KP-4 (Pancreatic Carcinoma)
# Procedure, shortened: as §1
# [2] = test system: LCLC-103H (Non-Small Cell Lung Carcinoma)
# Procedure, shortened: as §1
# [3] = test system: MM1S (Plasma Cell Myeloma)
# Procedure, shortened: as §1
# [4] = test system: MS-1 (Small Cell Lung Carcinoma)
# Procedure, shortened: as §1
# [5] = test system: NAMALWA (Burkitt's Lymphoma)
# Procedure, shortened: as §1
# NB1 (Neuroblastoma) = test system: NB1 (Neuroblastoma)
# Procedure, shortened: as §1
# NCI-H2373 (Mesothelioma) = test system: NCI-H2373 (Mesothelioma)
# Procedure, shortened: as §1
# [6] = test system: NCI-H3118 (Head and Neck Carcinoma)
# Procedure, shortened: as §1
# [7] = test system: NCI-H596 (Other Solid Carcinomas)
# Procedure, shortened: as §1
# [8] = test system: PL4 (Pancreatic Carcinoma)
# Procedure, shortened: as §1
# [9] = test system: RCC-JW (Kidney Carcinoma)
# Procedure, shortened: as §1
# [10] = test system: Raji (Burkitt's Lymphoma)
# Procedure, shortened: as §1
# [11] = test system: SCC-4 (Oral Cavity Carcinoma)
# Procedure, shortened: as §1
# [12] = test system: SK-CO-1 (Colorectal Carcinoma)
# Procedure, shortened: as §1
# [13] = test system: SNU-423 (Hepatocellular Carcinoma)
# Procedure, shortened: as §1
# [14] = test system: SiHa (Cervical Carcinoma)
# Procedure, shortened: as §1
# T47D (Breast Carcinoma) = test system: T47D (Breast Carcinoma)
# Procedure, shortened: as §1
# [15] = test system: T84 (Colorectal Carcinoma)
# Procedure, shortened: as §1
Structure (SMILES),combination Emax (AM-38 (Glioblastoma)),combination Emax (GAK (Melanoma)),combination Emax [1],combination Emax [2],combination Emax [3],combination Emax [4],combination Emax [5],combination Emax (NB1 (Neuroblastoma)),combination Emax (NCI-H2373 (Mesothelioma)),combination Emax [6],combination Emax [7],combination Emax [8],combination Emax [9],combination Emax [10],combination Emax [11],combination Emax [12],combination Emax [13],combination Emax [14],combination Emax (T47D (Breast Carcinoma)),combination Emax [15]
"COc1cc2c(cc1OCCCCCOc1cc3c(cc1OC)C(=O)N1C=C(C)C[C@H]1C=N3)N=C[C@@H]1CC(C)=CN1C2=O [SG3199] + O=C(c1cc(Cc2n[nH]c(=O)c3ccccc23)ccc1F)N1CCN(C(=O)C2CC2)CC1 [Olaparib] (first compound max 0.001 µM, 7x7, partner max 10 µM)",0.306,0.106,0.0915,0.0713,0.293,0.379,0.575,0.187,0.242,0.118,0.202,0.204,0.0774,0.43,0.0768,0.46,0.146,0.0997,0.164,0.0664
"CCc1c2c(nc3ccc(O)cc13)-c1cc3c(c(=O)n1C2)COC(=O)[C@]3(O)CC [SN-38] + CN(C)CCCOc1ccc(-c2ccc3ncc4c(c3c2)n(C2CCOCC2)c(=O)n4C)cn1 [AZD0156] (first compound max 0.3 µM, 7x7, partner max 1 µM)",0.917,0.477,0.817,0.486,0.966,0.63,0.989,0.83,0.726,0.402,0.348,0.828,0.656,0.958,0.839,0.887,0.455,0.235,0.643,0.644
"C[C@@H](c1ccc2nccn2c1)n1nnc2ncc(-c3cnn(C)c3)nc21 [Savolitinib] + CC1(C)CCC(CN2CCN(c3ccc(C(=O)NS(=O)(=O)c4ccc(NCC5CCOCC5)c([N+](=O)[O-])c4)c(Oc4cnc5[nH]ccc5c4)c3)CC2)=C(c2ccc(Cl)cc2)C1 [Venetoclax] (first compound max 1 µM, 7x7, partner max 1 µM)",0.0558,0.199,0.453,0.146,0.116,0.155,0.213,0.0333,0.138,0.115,0.229,0.125,0.124,0.171,0.101,0.0828,0.233,0.137,0.153,0.0875
"C[C@@H](c1ccc2nccn2c1)n1nnc2ncc(-c3cnn(C)c3)nc21 [Savolitinib] + Cc1c2c(nn1C)CSCc1cc(n(C)n1)CSc1cc(c3ccccc3c1)OCCCc1c(C(=O)O)n(C)c3c-2c(Cl)ccc13 [AZD5991] (first compound max 1 µM, 7x7, partner max 1 µM)",0.244,0.264,0.435,0.211,0.225,0.26,0.956,0.175,0.133,0.225,0.197,0.189,0.106,0.751,0.183,0.114,0.2,0.167,0.23,0.103
"Cn1cnc2c(F)c(Nc3ccc(Br)cc3Cl)c(C(=O)NOCCO)cc21 [Selumetinib] + C=CCn1c(=O)c2cnc(Nc3ccc(N4CCN(C)CC4)cc3)nc2n1-c1cccc(C(C)(C)O)n1 [AZD1775] (first compound max 10 µM, partner max 1 µM)",0.563,0.719,0.6,0.43,0.746,0.778,0.966,0.84,0.342,0.902,0.223,0.63,0.16,0.681,0.452,0.794,0.396,0.22,0.34,0.401
"Cn1cnc2c(F)c(Nc3ccc(Br)cc3Cl)c(C(=O)NOCCO)cc21 [Selumetinib] + CC(C)n1c(=O)n(C)c2cnc3cc(F)c(-c4ccc(OCCCN5CCCCC5)nc4)cc3c21 [AZD1390] (first compound max 10 µM, 7x7, partner max 0.3 µM)",0.437,0.626,0.283,0.138,0.264,0.117,0.136,0.127,0.298,0.577,0.21,0.567,0.0923,0.233,0.278,0.776,0.275,0.156,0.109,0.397
"Cn1cnc2c(F)c(Nc3ccc(Br)cc3Cl)c(C(=O)NOCCO)cc21 [Selumetinib] + CCN(CCO)CCCOc1ccc2c(Nc3cc(CC(=O)Nc4cccc(F)c4)[nH]n3)ncnc2c1 [AZD2811] (first compound max 10 µM, 7x7, partner max 1 µM)",0.542,0.629,0.678,0.376,0.283,0.179,0.336,0.566,0.284,0.537,0.23,0.572,0.132,0.0936,0.415,0.878,0.264,0.22,0.29,0.312
"Cn1cnc2c(F)c(Nc3ccc(Br)cc3Cl)c(C(=O)NOCCO)cc21 [Selumetinib] + C[C@@H]1COCCN1C2=NC(=NC(=C2)C3(CC3)[S@](=N)(=O)C)C4=C5C=CNC5=NC=C4 [AZD6738] (first compound max 10 µM, 7x7, partner max 10 µM)",0.706,0.667,0.506,0.324,0.475,0.667,0.918,0.783,0.463,0.653,0.36,0.798,0.386,0.722,0.502,0.808,0.285,0.209,0.158,0.667
"CC(=O)Nc1cccc(-n2c(=O)n(C3CC3)c(=O)c3c(Nc4ccc(I)cc4F)n(C)c(=O)c(C)c32)c1 [Trametinib] + Cc1nc(-c2cn3c(n2)-c2ccc(-c4cnn(C(C)(C)C(N)=O)c4)cc2OCC3)n(C(C)C)n1 [Taselisib] (first compound max 1 µM, 7x7, partner max 10 µM)",0.909,0.985,0.694,0.539,1,0.513,0.589,0.995,0.766,0.966,0.81,0.951,0.556,0.144,0.992,1,0.827,0.302,0.643,0.96
"CC1(C)CCC(CN2CCN(c3ccc(C(=O)NS(=O)(=O)c4ccc(NCC5CCOCC5)c([N+](=O)[O-])c4)c(Oc4cnc5[nH]ccc5c4)c3)CC2)=C(c2ccc(Cl)cc2)C1 [Venetoclax] + C1CN(CCC1(C(=O)N[C@@H](CCO)C2=CC=C(C=C2)Cl)N)C3=NC=NC4=C3C=CN4 [Capivasertib] (first compound max 1 µM, 7x7, partner max 3 µM)",0.0317,0.152,0.0982,0.238,0.978,0.36,0.534,0.755,0.422,0.169,0.334,0.197,0.157,0.132,0.23,0.187,0.393,0.282,0.373,0.168
"CC1(C)CCC(CN2CCN(c3ccc(C(=O)NS(=O)(=O)c4ccc(NCC5CCOCC5)c([N+](=O)[O-])c4)c(Oc4cnc5[nH]ccc5c4)c3)CC2)=C(c2ccc(Cl)cc2)C1 [Venetoclax] + C=CCn1c(=O)c2cnc(Nc3ccc(N4CCN(C)CC4)cc3)nc2n1-c1cccc(C(C)(C)O)n1 [AZD1775] (first compound max 1 µM, partner max 1 µM)",0.289,0.792,0.56,0.394,0.908,0.939,0.975,0.889,0.364,0.836,0.259,0.551,0.286,0.725,0.637,0.569,0.732,0.223,0.219,0.577
"CC1(C)CCC(CN2CCN(c3ccc(C(=O)NS(=O)(=O)c4ccc(NCC5CCOCC5)c([N+](=O)[O-])c4)c(Oc4cnc5[nH]ccc5c4)c3)CC2)=C(c2ccc(Cl)cc2)C1 [Venetoclax] + CCN(CCO)CCCOc1ccc2c(Nc3cc(CC(=O)Nc4cccc(F)c4)[nH]n3)ncnc2c1 [AZD2811] (first compound max 1 µM, 7x7, partner max 1 µM)",0.221,0.242,0.322,0.333,0.265,0.34,0.56,0.606,0.232,0.207,0.207,0.248,0.184,0.122,0.429,0.583,0.229,0.172,0.266,0.127
